Each structure is given as a SMILES string. Values after ≈ are worked out from the molar mass of the structure shown. Active and inactive are the calls of the source. The rule behind the calls is not given here.

The first assay relates to Plasmodium falciparum. Briefly: Antimalarial activity against multidrug-resistant Plasmodium falciparum K1 after 24 hrs by [3H]hypoxanthine uptake. The assay is classed as functional, organism-based.
Broadly, the IC50 is the point on the concentration scale where inhibition reaches its midpoint. A high value points to weaker potency. Turning to `Nc1ncnc2c1ncn2[C@@H]1O[C@H](CO)C[C@H]1O` [CORDYCEPIN], the IC50 stood at 4.5 µg/mL (≈ 17.9 µM).
On the same count and under the same terms, as for `C[C@H]1[C@@H](O)O[C@@H]2O[C@@]3(C)CC[C@H]4[C@H](C)CC[C@@H]1[C@@]24OO3` [ARTENIMOL], the figure is 0.0012 µg/mL (≈ 0.00422 µM).

In the next assay the test system is Plasmodium falciparum. The assay is described as follows: Antimalarial activity against multidrug-resistant Plasmodium falciparum K1 at <20 ug/mL after 24 hrs by [3H]hypoxanthine uptake. It counts as functional, organism-based.
For the molecule `CO[C@H]1CC(=O)CC[C@@H](C)OC(=O)C[C@@H]1O`, the outcome was inactive.
Turning to `C[C@@H]1CC[C@@H](O)/C=C/[C@@H](O)CC(=O)O1`, the result was inactive.
The same measure, in the same setting: as for `C[C@@H]1CCC(=O)C[C@H](O)[C@@H](O)CC(=O)O1`, the entry is “inactive”; as for `CO[C@@H]1CC(=O)CC[C@@H](C)OC(=O)C[C@@H]1O`, “inactive”.

(Values after ChEMBL document CHEMBL1148961, “10-membered macrolides from the insect pathogenic fungus Cordyceps militaris BCC 2816” (J Nat Prod, 2004).)
